We go through eleven molecules from BindingDB's records for PubMed 10900230 (University of Michigan, 2000).

The experiment has as its target T1, Alpha-2A adrenergic receptor (Sus scrofa, UniProt P18871).
T1 sequence (P18871 whole entry): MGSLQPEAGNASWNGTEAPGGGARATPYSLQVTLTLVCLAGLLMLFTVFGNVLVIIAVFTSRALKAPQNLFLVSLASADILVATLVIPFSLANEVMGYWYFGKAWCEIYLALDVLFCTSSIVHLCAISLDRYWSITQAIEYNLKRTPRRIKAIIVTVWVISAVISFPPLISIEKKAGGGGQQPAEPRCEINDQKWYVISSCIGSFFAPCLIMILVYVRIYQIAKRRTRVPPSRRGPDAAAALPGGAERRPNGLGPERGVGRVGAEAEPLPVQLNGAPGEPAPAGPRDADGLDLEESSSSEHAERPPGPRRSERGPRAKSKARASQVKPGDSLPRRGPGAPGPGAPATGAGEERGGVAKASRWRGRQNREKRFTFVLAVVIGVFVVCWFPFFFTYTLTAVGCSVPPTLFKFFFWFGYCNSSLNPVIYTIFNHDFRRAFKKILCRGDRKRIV

`CNCC(O)c1ccc(O)c(O)c1` (stereo unspecified) [EPINEPHRINE] returned a Ki of 0.646 µM.

`Clc1cccc(Cl)c1N=C1NCCN1` [2-(2,6-dichloroanilino)-2-imidazoline] registered a Ki of 0.0851 µM.

As to `Cc1cccc(C)c1N=C1NCCCS1` [(5,6-Dihydro-4H-[1,3]thiazin-2-yl)-(2,6-dimethyl-phenyl)-amine], affinity was put at a Ki of 3.16 µM.

In turn, `CC(C)NCC(O)c1ccc(O)c(O)c1` (stereo not drawn) [Isoproterenol,(+)] came in with a Ki above 10 µM.

`CCN1CCc2nc(N)oc2CC1` [NSC_169743]: the Ki is above 10 µM.

For `Cc1cc(C(C)(C)C)c(O)c(C)c1CC1=NCCN1` [SMR000059324], the Ki turned out to be 0.0355 µM.

Take `NCC(O)c1ccc(O)c(O)c1` (stereo not drawn) [Noradrenaline,(+)]: the affinity, expressed as Ki, was 5.62 µM.

The molecule `Nc1cc(Cl)c(N=C2NCCN2)c(Cl)c1` [p-AMINOCLONIDINE] registered a Ki of 0.288 µM.

For the molecule `NC(N)=NN=Cc1c(Cl)cccc1Cl` [Guanabenz], the inhibition constant (Ki) stood at 0.0575 µM.

Consider `Clc1cc(I)cc(Cl)c1N=C1NCCN1` [Iodoclonidine-p], for which the Ki was 0.0513 µM.

Consider `Brc1c(NC2=NCCN2)ccc2nccnc12` [UK 14,304], for which the affinity corresponds to a Ki of 0.479 µM.

The Ki is the dissociation constant of the complex between target and ligand, obtained from inhibition or displacement.
